Here are results for 28 molecules from patent US7994209B2, “3-phenoxymethylpyrrolidine compounds” (Theravance, Inc., priority 2009, dated 2011).

Bounds are passed on as bounds.

Assay [1] deals with T1, hNET (Homo sapiens, UniProt P23975). The assay can be described thus: hNET neurotransmitter uptake assay (3H-NE), Assay 2. Format: cell-based. The following applies: norepinephrine reuptake inhibition, 3H-NE uptake, HEK-293 hNET cells (values without asterisk); read-out: NET pIC50 (converted). Also noted: expressed in transfected cells; host or cells: HEK-293. The protocol:
(§1) Cells were harvested by centrifugation at 1100 rpm for 5 minutes, washed once by resuspension in PBS, then centrifuged. The supernatant was discarded and the cell pellet resuspended, by gentle trituration, in room temperature Krebs-Ringer bicarbonate buffer containing HEPES (10 mM), CaCl2 (2.2 mM), ascorbic acid (200 μM) and pargyline (200 μM), pH 7.4.
(§2) Test compounds were incubated for 30 minutes at 37° C. with the respective cells, prior to addition of radiolabeled neurotransmitter, ^3H-5-HT (20 nM final concentration), ^3H-NE (50 nM final concentration) or ^3H-DA (100 nM final concentration).

The target of assay [2] is T2, hSERT (Homo sapiens, UniProt P31645). The assay can be described thus: hSERT neurotransmitter uptake assay (3H-5-HT), Assay 2. The format is cell-based. The arrangement: expressed in transfected cells; host or cells: HEK-293. The following applies: serotonin reuptake inhibition, 3H-5-HT uptake, HEK-293 hSERT cells (values without asterisk); read-out: SERT pIC50 (converted). The protocol:
as §1, §2

Assay [3] concerns the target T1, hNET. Put plainly: hNET membrane radioligand binding assay (3H-nisoxetine), Assay 1.
For assay [4], the target named is T2, hSERT. The assay can be described thus: hSERT membrane radioligand binding assay (3H-citalopram), Assay 1. To be noted: SERT pKi, hSERT HEK-293 membranes, 1.0 nM 3H-citalopram; values given as lower bounds.
Description: Membrane radioligand binding assays were used to measure inhibition of labeled ligand (^3H-citalopram or ^3H-nisoxetine or ^3H-WIN35428) binding to membranes prepared from cells expressing the respective human recombinant transporter (hSERT or hNET or hDAT) in order to determine the pKi values of test compounds at the transporters.
Recombinant human embryonic kidney (HEK-293) derived cell lines stably transfected with hSERT or hNET, respectively, were grown in DMEM medium supplemented with 10% dialyzed FBS (for hSERT) or FBS (for hNET), 100 μg/mL penicillin, 100 μg/mL streptomycin, 2 mM L-glutamine and 250 μg/mL of the aminoglycoside antibiotic G418, in a 5% CO2 humidified incubator at 37° C. When cultures reached 80% confluence, the cells were washed thoroughly in PBS (without Ca^2+ and Mg^2+) and lifted with 5 mM EDTA in PBS. Cells were pelleted by centrifugation, resuspended in lysis buffer (10 mM Tris-HCl, pH7.5 containing 1 mM EDTA), homogenized, pelleted by centrifugation, then resuspended in 50 mM Tris-HCl, pH 7.5 and 10% sucrose at 4° C. Protein concentration of the membrane suspension was determined using a Bio-Rad Bradford Protein Assay kit. Membranes were snap frozen and stored at −80° C.
Binding assays were performed in a 96-well assay plate in a total volume of 200 μl assay buffer (50 mM Tris-HCl, 120 mM NaCl, 5 mM KCl, pH 7.4) with 0.5, 1, and 3 μg membrane protein, for SERT, NET and DAT, respectively.
Stock solutions (10 mM in DMSO) of test compound were prepared and serial dilutions made using Dilution Buffer (50 mM Tris-HCl, 120 mM NaCl, 5 mM KCl, pH 7.4, 0.1% BSA, 400 μM ascorbic acid).
Following a 60 minute incubation at 22° C. (or a period sufficient to reach equilibrium), the membranes were harvested by rapid filtration over a 96-well UniFilter GF/B plate, pretreated with 0.3% polyethyleneimine, and washed 6 times with 300 μl wash buffer (50 mM Tris-HCl, 0.9% NaCl, pH 7.5 at 4° C.). Plates were dried overnight at room temperature, approximately 45 μl of MicroScint™-20 (Perkin Elmer) added and bound radioactivity quantitated via liquid scintillation spectroscopy. Inhibition curves and saturation isotherms were analyzed using GraphPad Prism Software package (GraphPad Software, Inc., San Diego, Calif.). IC50 values were generated from concentration response curves using the Sigmoidal Dose Response (variable slope) algorithm in Prism GraphPad.

T1 sequence (P23975 whole entry): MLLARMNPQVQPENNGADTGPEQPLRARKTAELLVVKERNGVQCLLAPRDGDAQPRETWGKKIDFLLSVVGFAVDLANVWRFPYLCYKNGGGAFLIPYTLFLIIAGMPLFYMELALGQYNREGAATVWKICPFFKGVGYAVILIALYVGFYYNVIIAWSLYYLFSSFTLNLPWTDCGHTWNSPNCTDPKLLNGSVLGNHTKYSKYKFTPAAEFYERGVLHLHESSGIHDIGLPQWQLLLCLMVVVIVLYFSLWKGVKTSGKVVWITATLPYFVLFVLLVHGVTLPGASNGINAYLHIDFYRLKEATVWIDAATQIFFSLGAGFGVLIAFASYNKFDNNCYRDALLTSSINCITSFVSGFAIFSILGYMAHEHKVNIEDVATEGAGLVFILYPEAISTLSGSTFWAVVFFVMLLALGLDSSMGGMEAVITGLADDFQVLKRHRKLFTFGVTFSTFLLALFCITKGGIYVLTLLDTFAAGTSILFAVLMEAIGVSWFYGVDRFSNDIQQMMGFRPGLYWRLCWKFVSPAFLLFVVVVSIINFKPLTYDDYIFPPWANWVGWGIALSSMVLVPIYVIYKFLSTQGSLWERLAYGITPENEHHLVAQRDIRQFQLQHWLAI
T2 sequence (P31645 whole entry): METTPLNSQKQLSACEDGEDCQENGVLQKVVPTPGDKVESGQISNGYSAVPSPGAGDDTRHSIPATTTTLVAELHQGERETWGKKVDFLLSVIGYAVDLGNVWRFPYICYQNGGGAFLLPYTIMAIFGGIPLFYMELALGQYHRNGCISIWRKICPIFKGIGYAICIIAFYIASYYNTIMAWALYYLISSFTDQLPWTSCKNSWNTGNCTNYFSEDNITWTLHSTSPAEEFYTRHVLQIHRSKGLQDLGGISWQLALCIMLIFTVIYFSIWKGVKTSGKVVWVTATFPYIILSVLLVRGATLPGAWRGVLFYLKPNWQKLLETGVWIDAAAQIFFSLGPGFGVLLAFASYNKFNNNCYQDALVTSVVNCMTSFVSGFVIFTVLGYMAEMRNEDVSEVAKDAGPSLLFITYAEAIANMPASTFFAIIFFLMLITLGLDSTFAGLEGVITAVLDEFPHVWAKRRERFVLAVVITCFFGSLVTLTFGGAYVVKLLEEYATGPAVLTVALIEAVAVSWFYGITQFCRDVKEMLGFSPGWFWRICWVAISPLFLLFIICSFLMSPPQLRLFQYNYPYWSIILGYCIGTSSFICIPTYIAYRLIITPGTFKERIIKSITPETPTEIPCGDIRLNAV

The term Ki denotes a dissociation constant, usually derived from enzyme kinetics or from competition with a known ligand. Consider `CC(C)[C@H](Oc1ccc(Cl)c(Cl)c1)[C@H]1CCNC1` [Example 6-62, (S)-3-[(S)-1-(3,4-Dichlorophenoxy)-2-methylpropyl]pyrrolidine], for which the IC50 in assay [1] and in assay [2] was at most 10 nM throughout. For the same molecule, the Ki in assay [3] and in assay [4] was at most 10 nM in each case.
As for `FC(F)(F)c1c(Cl)cccc1O[C@@H](C1CC1)[C@H]1CCNC1` [Example 16-16, (S)-3-[(S)-(3-Chloro-2-trifluoromethylphenoxy)cyclopropylmethyl]pyrrolidine], the IC50 in assay [1] and in assay [2] was at most 10 nM throughout. The Ki in assay [3] and in assay [4] was at most 10 nM throughout.
For the molecule `Cc1cc(Cl)ccc1O[C@@H](C(C)C)[C@H]1CCNC1` [Example 6-45, (S)-3-[(S)-1-(4-Chloro-2-methylphenoxy)-2-methylpropyl]pyrrolidine], the IC50 in assay [1] and in assay [2] was at most 10 nM throughout. Besides, the Ki in assay [3] and in assay [4] was at most 10 nM in each case.
Consider `CC(C)C[C@@H](Oc1ccc(Cl)cc1Cl)[C@H]1CCNC1` [Example 10-44, (S)-3-[(R)-1-(2,4-Dichlorophenoxy)-3-methylbutyl]pyrrolidine], for which the IC50 in assay [1] and in assay [2] was at most 10 nM in each case. Besides, the Ki in assay [3] is at most 100 nM; in assay [4] it was at most 10 nM.
`CC(C)C[C@H](Oc1cccc(F)c1)[C@H]1CCNC1` [Example 10-5, (S)-3-[(S)-1-(3-Fluorophenoxy)-3-methylbutyl]pyrrolidine]: the IC50 in assay [1] is at most 10 nM; in assay [2] it was at most 100 nM. The Ki in assay [3] and in assay [4] was at most 10 nM throughout.
As to `Cc1cccc(O[C@H](C(C)C)[C@H]2CCNC2)c1C` [Example 6-43, (S)-3-[(R)-1-(2,3-Dimethylphenoxy)-2-methylpropyl]pyrrolidine], the IC50 in assay [1] and in assay [2] was at most 10 nM throughout. The Ki in assay [3] and in assay [4] was at most 10 nM each time.
With `CC[C@H](Oc1c(C)cc(Cl)cc1Cl)[C@H]1CCNC1` [Example 2-43, (S)-3-[(S)-1-(2,4-Dichloro-6-methylphenoxy)propyl]pyrrolidine], the IC50 is at most 10 nM in assay [1] and at most 100 nM in assay [2]. In addition, the Ki in assay [3] and in assay [4] was at most 10 nM in each case.
Take `CCC[C@@H](Oc1ccccc1Cl)[C@H]1CCNC1` [Example 4-20, (S)-3-[(R)-1-(2-Chlorophenoxy)butyl]pyrrolidine]: the figures for the IC50 in assay [1] and in assay [2] were at most 10 nM and at most 100 nM, respectively. Further, the Ki in assay [3] and in assay [4] was at most 10 nM throughout.
Consider `CCC[C@H](Oc1cccc2ccccc12)[C@H]1CCNC1` [Example 14-3, (S)-3-[(S)-1-(Naphthalen-1-yloxy)butyl]pyrrolidine], for which the IC50 in assay [1] and in assay [2] was at most 10 nM throughout. Besides, the Ki in assay [3] and in assay [4] was at most 10 nM in each case.
In the case of `C#CC(Oc1cccc(Cl)c1Cl)[C@H]1CCNC1` (stereo partly drawn) [Example 27-1, (S)-3-[1-(2,3-Dichlorophenoxy)prop-2-ynyl]pyrrolidine], the IC50 in assay [1] was at most 10 nM; in assay [2] it was at most 100 nM. Besides, the Ki in assay [3] and in assay [4] was at most 10 nM throughout.
`CC[C@H](Oc1c(C)cccc1Cl)[C@H]1CCNC1` [Example 2-27, (S)-3-[(S)-1-(2-Chloro-6-methylphenoxy)propyl]pyrrolidine]: the IC50 was at most 10 nM in assay [1] and at most 100 nM in assay [2]. The Ki in assay [3] and in assay [4] was at most 10 nM each time.
As for `CC[C@H](Oc1ccc(F)cc1Cl)[C@H]1CCNC1` [Example 2-32, (S)-3-[(S)-1-(2-Chloro-4-fluorophenoxy)propyl]pyrrolidine], the IC50 in assay [1] and in assay [2] was at most 10 nM each time. The Ki in assay [3] and in assay [4] was at most 10 nM in each case.
For the molecule `Fc1cc(Cl)cc(O[C@@H](C2CC2)[C@H]2CCNC2)c1` [Example 16-98, (S)-3-[(S)-(3-Chloro-5-fluorophenoxy)cyclopropylmethyl]pyrrolidine], the results for the IC50 in assay [1] and in assay [2] were at most 10 nM and at most 100 nM, respectively. Further, the Ki in assay [3] and in assay [4] was at most 10 nM each time.
Consider `CCC[C@@H](Oc1ccc(Cl)c(Cl)c1)[C@H]1CCNC1` [Example 4-13, (S)-3-[(R)-1-(3,4-Dichlorophenoxy)butyl]pyrrolidine], for which the IC50 in assay [1] and in assay [2] was at most 10 nM in each case. Also, the Ki in assay [3] and in assay [4] was at most 10 nM each time.
With `Fc1cccc(O[C@@H](C2CC2)[C@H]2CCNC2)c1Cl` [Example 16-9, (S)-3-[(S)-(2-Chloro-3-fluorophenoxy)cyclopropylmethyl]pyrrolidine], the IC50 in assay [1] was at most 10 nM; in assay [2], at most 100 nM. Besides, the Ki in assay [3] and in assay [4] was at most 10 nM each time.
For the molecule `CC(C)C[C@H](Oc1ccc(Cl)c(Cl)c1F)[C@H]1CCNC1` [Example 10-61, (S)-3-[(S)-1-(3,4-Dichloro-2-fluorophenoxy)-3-methylbutyl]pyrrolidine], the IC50 in assay [1] and in assay [2] was at most 10 nM throughout. For the same molecule, the Ki in assay [3] and in assay [4] was at most 10 nM in each case.
As for `CC[C@@H](Oc1cccc(Cl)c1Cl)[C@@H]1CCNC1` [Example 2-29, (R)-3-[(R)-1-(2,3-Dichlorophenoxy)propyl]pyrrolidine], the IC50 in assay [1] and in assay [2] was at most 10 nM in each case. Also, the Ki in assay [3] and in assay [4] was at most 10 nM throughout.
As for `CC[C@H](Oc1cccc(Cl)c1C(F)(F)F)[C@H]1CCNC1` [Example 2-71, (S)-3-[(S)-1-(3-Chloro-2-trifluoromethylphenoxy)propyl]pyrrolidine], the IC50 in assay [1] was at most 10 nM; in assay [2], at most 100 nM. In addition, the Ki in assay [3] and in assay [4] was at most 10 nM throughout.
Turning to `CC(C)CC(Oc1cccc(Cl)c1Cl)C1CCNC1` (stereo not shown) [Example 10-22, 3-[1-(2,3-Dichlorophenoxy)-3-methylbutyl]pyrrolidine], the IC50 in assay [1] and in assay [2] was at most 10 nM each time. Also, the Ki in assay [3] and in assay [4] was at most 10 nM in each case.
On to `CC[C@H](Oc1cc(F)c(Cl)cc1OC)[C@H]1CCNC1` [Example 2-70, (S)-3-[(S)-1-(4-Chloro-5-fluoro-2-methoxyphenoxy)propyl]pyrrolidine], for which the results for the IC50 in assay [1] and in assay [2] were at most 10 nM and at most 100 nM, respectively. Also, the inhibitory constant (Ki) in assay [3] and in assay [4] was at most 10 nM throughout.
Turning to `CC[C@H](Oc1c(F)cc(F)cc1F)[C@H]1CCNC1` [Example 2-55, (S)-3-[(S)-1-(2,4,6-Trifluorophenoxy)propyl]pyrrolidine], the IC50 in assay [1] is at most 10 nM; in assay [2] it was at most 100 nM. Further, the Ki in assay [3] and in assay [4] was at most 10 nM each time.
Regarding `Cc1ccc(O[C@H](C2CC2)[C@H]2CCNC2)c(F)c1F` [Example 16-51, (S)-3-[(R)cyclopropyl-(2,3-difluoro-4-methylphenoxy)methyl]pyrrolidine], the IC50 in assay [1] and in assay [2] was at most 10 nM in each case. For the same molecule, the Ki in assay [3] and in assay [4] was at most 10 nM throughout.
Take `CC[C@@H](Oc1cc(Cl)cc(Cl)c1)[C@@H]1CCNC1` [Example 2-19, (R)-3-[(R)-1-(3,5-Dichlorophenoxy)propyl]pyrrolidine]: the IC50 in assay [1] and in assay [2] was at most 100 nM in each case. For the same molecule, the Ki in assay [3] and in assay [4] was at most 10 nM throughout.
In the case of `CC(C)C[C@@H](Oc1cccc(Cl)c1Cl)[C@H]1CCNC1` [Example 10-23, (S)-3-[(R)-1-(2,3-Dichlorophenoxy)-3-methylbutyl]pyrrolidine], the IC50 in assay [1] and in assay [2] was at most 10 nM in each case. The Ki in assay [3] and in assay [4] was at most 10 nM each time.
As for `CC[C@@H](Oc1c(F)ccc(F)c1Cl)[C@H]1CCNC1` [Example 2-41, (S)-3-[(R)-1-(2-Chloro-3,6-difluorophenoxy)propyl]pyrrolidine], the results for the IC50 in assay [1] and in assay [2] were at most 10 nM and at most 100 nM, respectively. Moreover, the Ki in assay [3] and in assay [4] was at most 10 nM throughout.
In the case of `Fc1cccc(O[C@H](C2CCCCC2)[C@H]2CCNC2)c1Cl` [Example 20-5, (S)-3-[(R)-(2-Chloro-3-fluorophenoxy)cyclohexylmethyl]pyrrolidine], the IC50 in assay [1] and in assay [2] was at most 10 nM each time. Also, the Ki in assay [3] and in assay [4] was at most 10 nM each time.
For `CC(C)[C@H](Oc1ccc(Cl)c(Cl)c1F)[C@H]1CCNC1` [Example 6-7, (S)-3-[(S)-1-(3,4-Dichloro-2-fluorophenoxy)-2-methylpropyl]pyrrolidine], the IC50 in assay [1] and in assay [2] was at most 10 nM in each case. For the same molecule, the inhibition constant (Ki) in assay [3] and in assay [4] was at most 10 nM throughout.
For `CC(C)[C@H](Oc1ccc(Cl)c(F)c1)[C@H]1CCNC1` [Example 6-56, (S)-3-[(S)-1-(4-Chloro-3-fluorophenoxy)-2-methylpropyl]pyrrolidine], the IC50 in assay [1] and in assay [2] was at most 10 nM in each case. Also, the inhibition constant (Ki) in assay [3] and in assay [4] was at most 10 nM each time.
